Measurements published in patent publication US10123537B2, “Amide compound or salt thereof, agricultural and horticultural insecticide and microbicide comprising the compound, and method for using the insecticide and microbicide” (NIHON NOHYAKU CO., LTD., priority 2013, dated 2018).

Experiments:
Meloidogyne incognita = assay: Nematicidal test on Meloidogyne incognita; format: in vivo; conditions: 500 ppm, 1 mL soil drench, potted melon seedlings, 8 days after inoculation
Method: Nematicidal Test on Meloidogyne incognita
Agrochemical formulations containing different amide compounds represented by the general formula (I) of the present invention or salts thereof as an active ingredient were separately diluted to a concentration of 500 ppm. The diluted agrochemical formulations (1 mL) were drenched into the soil around the foot of potted melon seedlings. At one day after the agrochemical treatment, an aqueous suspension of Meloidogyne incognita (about 500 worms/mL) was drenched into the soil for inoculation both in a treatment plot and in a non-treatment plot. The inoculated pots were kept in a greenhouse at 25° C. At 8 days after the inoculation, the root of each seedling was washed with water, the number of root nodules was counted, and the nematicidal effect was evaluated according to the following criteria.
A: the percentage of the number of root nodules relative to the non-treatment plot is 0%.
B: the percentage of the number of root nodules relative to the non-treatment plot is 1 to 10%.
C: the percentage of the number of root nodules relative to the non-treatment plot is 11 to 20%.
D: the percentage of the number of root nodules relative to the non-treatment plot is 21 to 50%.

Tetranychus urticae = assay: Acaricidal test on Tetranychus urticae; format: in vivo; conditions: 500 ppm, kidney bean leaf disks dipped about 30 seconds, female adults, two days later, 25° C.
Text: Acaricidal Test on Tetranychus urticae

[1] = tested on: wheat powdery mildew fungus Erysiphe graminis; conditions: 200 ppm, foliar application to wheat plants, 10 mL per pot, 7 days after inoculation
Laodelphax striatella = assay: Insecticidal test on Laodelphax striatella; format: in vivo; conditions: Laodelphax striatellus, 192 h, rice seedlings dipped 30 seconds, 3rd-instar larvae, 8 days after inoculation, read-out: insecticidal effect (corrected mortality rate) activity level
Text: Insecticidal Test on Laodelphax striatella
The amide compounds represented by the general formula (I) of the present invention or salts thereof were separately dispersed in water and diluted to 500 ppm, and rice plant seedlings (variety: Nihonbare) were dipped in the agrochemical dispersions for 30 seconds. After air-dried, each seedling was put into a separate glass test tube and inoculated with ten 3rd-instar larvae of Laodelphax striatella, and then the glass test tubes were capped with cotton plugs. At 8 days after the inoculation, the numbers of surviving larvae and dead larvae were counted, the corrected mortality rate was calculated according to the formula shown below, and the insecticidal effect was evaluated according to the criteria of Test Example 1. Corrected mortality rate (%)=100×(Survival rate in a non-treatment plot−Survival rate in a treatment plot)/Survival rate in a non-treatment plot

Plutella xylostella = assay: Insecticidal test on Plutella xylostella; format: in vivo; conditions: 144 h, Chinese cabbage seedlings with laid eggs dipped about 30 seconds, 25° C., 6 days after dip treatment, read-out: insecticidal effect (corrected mortality rate, hatched larvae) activity level
Text: Insecticidal Test on Plutella xylostella
Adults of Plutella xylostella were released onto Chinese cabbage seedlings and allowed to lay eggs thereon. At 2 days after the release of the adults, the Chinese cabbage seedlings with laid eggs were dipped for about 30 seconds in agrochemical formulations diluted to 500 ppm, each of which contained a different amide compound represented by the general formula (I) of the present invention as an active ingredient. After air-dried, the seedlings were kept in a thermostatic chamber at 25° C. At 6 days after the dip treatment, the number of hatched larvae per plot was counted, the mortality rate was calculated according to the formula shown below, and the insecticidal effect was evaluated according to the criteria of Test Example 1. This test was conducted in triplicate using 10 adults of Plutella xylostella per plot. Corrected mortality rate (%)=100×(Number of hatched larvae in a non-treatment plot−Number of hatched larvae in a treatment plot)/Number of hatched larvae in a non-treatment plot

Compound	nematicidal effect (number of root nodules relative to non-treatment plot) activity level (Meloidogyne incognita)	acaricidal effect (corrected mortality rate) activity level (Tetranychus urticae)	control effect (control rate, lesion area) activity level [1]	further results
CCS(=O)(=O)c1cc(C(F)(F)C(F)(F)F)ccc1C(=O)N(C)c1ccc(C(F)(F)F)cn1 [Compound 1-44]	D or higher	–	–	–
CCSc1cc(C(F)(F)F)ccc1C(=O)N(C)c1ccc(C(C(F)(F)F)C(F)(F)F)cc1 [Compound 3-10]	D or higher	D or higher	–	–
CCN(C(=O)c1ncc(C(F)(F)F)cc1S(=O)(=O)CC)c1ccc(C(F)(F)F)cn1 [Compound 1-12]	D or higher	–	–	–
CCS(=O)(=O)c1cc(C(F)(F)F)ccc1C(=O)N(C)c1ccc(C(F)(C(F)(F)F)C(F)(F)F)cn1 [Compound 1-21]	D or higher	–	D or higher	–
CCN(C(=O)c1ccc(C(F)(F)F)cc1[S+]([O-])CC)c1ccc(C(F)(F)F)cn1 (centres unmarked) [Compound 1-5]	D or higher	D or higher	D or higher	–
CCSc1cc(C(F)(F)F)ccc1C(=O)N(c1ccc(C(F)(F)F)cn1)C1CC1 [Compound 1-7]	D or higher	–	–	–
CC[S+]([O-])c1cc(C(F)(F)F)ccc1C(=O)N(C)c1ccc(C(F)(F)F)cc1 (centres unmarked) [Compound 3-2]	D or higher	D or higher	–	–
CC[S+]([O-])c1cc(C(F)(F)F)ccc1C(=O)N(C)c1ccc(C(F)(C(F)(F)F)C(F)(F)F)cc1 (centres unmarked) [Compound 3-8]	D or higher	–	–	–
CCSc1cc(C(F)(F)F)ccc1C(=O)N(C)c1ccc(Cl)cc1 [Compound 3-21]	D or higher	D or higher	–	–
CCS(=O)(=O)c1cc(C(F)(F)F)ccc1C(=O)N(C)c1ccc(C(F)(F)F)cn1 [Compound 1-3, 2-(ethylsulfonyl)-N-methyl-4-(trifluoromethyl)-N-(5-(trifluoromethyl)pyridin-2-yl)benzamide]	D or higher	–	–	mortality at 500 ppm (Laodelphax striatella): 100%; mortality at 500 ppm (Plutella xylostella): 100%
CCS(=O)(=O)c1cc(C(F)(F)F)ccc1C(=O)N(C)c1ccc(C(F)(F)F)cc1 [Compound 3-3]	D or higher	D or higher	D or higher	–
CCS(=O)(=O)c1cc(C(F)(F)F)ccc1C(=O)N(C)c1ccc(C(F)(F)F)nn1 [Compound 2-3]	D or higher	–	–	–
CCS(=O)(=O)c1cc(C(F)(F)F)ccc1C(=O)N(C)c1ccc(C(F)(C(F)(F)F)C(F)(F)F)cc1 [Compound 3-9]	D or higher	–	D or higher	–
CCN(C(=O)c1ccc(C(F)(F)F)cc1S(=O)(=O)CC)c1ccc(C(F)(F)F)cn1 [Compound 1-6]	D or higher	D or higher	D or higher	–
CCS(=O)(=O)c1cc(C(F)(F)F)ccc1C(=O)N(c1ccc(C(F)(F)F)cn1)C1CC1 [Compound 1-9]	D or higher	D or higher	–	–
CCSc1cc(C(F)(F)F)cnc1C(=O)N(c1ccc(C(F)(F)F)cn1)C1CC1 [Compound 1-13]	D or higher	–	–	–
CCSc1cc(C(F)(F)F)ccc1C(=O)N(C)c1ccc(C(F)(F)F)nn1 [Compound 2-1]	D or higher	–	–	–
CCS(=O)(=O)c1cc(C(F)(F)F)ccc1C(=O)N(C)c1ccc(C(F)(F)C(F)(F)F)cn1 [Compound 1-26]	D or higher	D or higher	–	–

Compound	nematicidal effect (number of root nodules relative to non-treatment plot) activity level (Meloidogyne incognita)	acaricidal effect (corrected mortality rate) activity level (Tetranychus urticae)	control effect (control rate, lesion area) activity level [1]	further results
CC[S+]([O-])c1cc(C(F)(F)F)ccc1C(=O)N(c1ccc(C(F)(F)F)cn1)C1CC1 (centres unmarked) [Compound 1-8]	D or higher	D or higher	–	–
CCS(=O)(=O)c1cc(C(F)(F)F)ccc1C(=O)N(C)c1ccc(C(F)(C(F)(F)F)C(F)(F)F)nc1 [Compound 1-24]	D or higher	–	–	–
CCSc1cc(C(F)(F)F)ccc1C(=O)N(CC)c1ccc(C(F)(F)F)cn1 [Compound 1-4]	D or higher	D or higher	–	–
CCSc1cc(C(F)(F)F)cnc1C(=O)N(CC)c1ccc(C(F)(F)F)cn1 [Compound 1-10]	D or higher	–	D or higher	–
CCSc1cc(C(F)(F)F)ccc1C(=O)N(C)c1ccc(OC(F)(F)F)cc1 [Compound 3-12]	D or higher	–	D or higher	–
CCSc1cc(C(F)(F)F)ccc1C(=O)Nc1ccc(C(C(F)(F)F)C(F)(F)F)cc1 [Compound 4-5]	D or higher	–	D or higher	–
CCSc1cc(C(F)(F)F)ccc1C(=O)N(C)c1ccc(C(F)(F)C(F)(F)F)cn1 [Compound 1-25]	D or higher	D or higher	–	–
CCS(=O)(=O)c1cc(C(F)(F)F)ccc1C(=O)N(C)c1ccc(C(OC)(C(F)(F)F)C(F)(F)F)cc1 [Compound 3-6]	D or higher	D or higher	D or higher	–
CCSc1cc(C(F)(F)F)ccc1C(=O)N(C)c1ccc(C(OC)(C(F)(F)F)C(F)(F)F)cc1 [Compound 3-4]	–	D or higher	–	–
CC[S+]([O-])c1cc(SC(F)(F)F)ccc1C(=O)Nc1ccc(C(F)(C(F)(F)F)C(F)(F)F)cc1Cl (centres unmarked) [Compound 6-23]	–	–	D or higher	–
CC[S+]([O-])c1cc(C(F)(F)F)ccc1C(=O)N(C)c1ccc(Cl)cc1 (centres unmarked) [Compound 3-22]	D or higher	–	–	–
CCS(=O)(=O)c1cc(C(F)(F)F)ccc1C(=O)N(C)c1ccc(C(C(F)(F)F)C(F)(F)F)cc1 [Compound 3-11]	D or higher	D or higher	–	–
CC[S+]([O-])c1cc(C(F)(F)F)ccc1C(=O)N(C)c1ccc(OC(F)(F)F)cc1 (centres unmarked) [Compound 3-13]	–	–	D or higher	–
CCSc1cc(C(F)(F)F)ccc1C(=O)N(C)c1ccc(C(F)(C(F)(F)F)C(F)(F)F)cc1 [Compound 3-7]	D or higher	–	–	–
CCS(=O)(=O)c1cc(C(F)(F)F)ccc1C(=O)Nc1ccc(F)c(C(F)(F)F)c1F [Compound 4-22]	–	–	D or higher	–
CC[S+]([O-])c1cc(C(F)(F)F)ccc1C(=O)Nc1ccc([Si](C)(C)C)cc1C (centres unmarked) [Compound 5-64]	–	–	D or higher	–
CCSc1cc(C(F)(F)F)ccc1C(=O)N(C)c1ccc(C(F)(C(F)(F)F)C(F)(F)F)nc1 [Compound 1-22]	–	–	D or higher	–
